Measured values from patent US10660882B2, “Prophylactic or therapeutic agent for giant cell tumors occurring in bone and soft tissue or for chondrosarcoma” (NIPPON CHEMIPHAR CO., LTD., priority 2012, dated 2020).

What was measured:
GCT cultured cells [1] = assay: Cell proliferation of GCT cultured cells, Cell Counting Kit-8, absorbance at 450 nm; assay type: cell-based, human; conditions: GCT cultured cells case 1, case 2
Procedure: (§1) GCT cultured cells (case 1, patient with osteoclastoma in a distal part of the right femur; case 2, patient with osteoclastoma in a distal part of the right femur) were cultured on a 96-well culture plate, zaltoprofen was added to the cells at various concentrations (5, 10, 50, 100, and 200 μM), color development was attained with Cell Counting Kit-8 (CCK-8) (Dojindo) 24 hours thereafter, and absorbance was measured at 450 nm 3 hours thereafter (FIG. 1).
In the same manner as that of Example 1, the GOT cultured cells (case 1, case 2) were cultured, a non-steroidal anti-inflammatory agent (acetaminophen, indomethacin, or diclofenac) or troglitazone was added at various concentrations, and absorbance was measured at 450 nm (FIGS. 12 and 13).
(§2) In the same manner as that of Example 1, the GCT cultured cells (case 1, case 2), the cells derived from giant cell tumor of tendon sheath (GCT of tendon sheath), or the cells derived from pigmented villonodular synovitis (diffuse-type GCT) were cultured, and then pioglitazone, a thiazolidine derivative, was added at various concentrations, and absorbance was measured at 450 nm (FIG. 32).

GCT cultured cells [2] = assay: Tunel assay of GCT cultured cells; assay type: cell-based, human; conditions: case 1; 100 and 200 μM; 8 hours and 24 hours
Procedure: (§3) Further, the aforementioned GCT cultured cells of the case 1 were cultured on chamber cover slide glass, and zaltoprofen was added at different concentrations (100, and 200 μM) 24 hours afterward. Then, 8 hours and 24 hours afterward, the cells were fixed with 4% paraformaldehyde, staining with caspase 3 and Tunel assay were performed, and presence or absence of apoptosis was analyzed. Observation was performed with a fluorescence microscope (BZ-9000) of Keyence, and positive images for each concentration were quantitatively observed (FIGS. 2 to 5).

caspase 3 [3] = assay: Caspase 3 staining of GCT cultured cells; assay type: cell-based, human; conditions: case 1; 100 and 200 μM; 8 hours and 24 hours
Procedure: as §3

PPARγ [4] = assay: PPARγ immunostaining of GCT cultured cells; assay type: cell-based, human; conditions: case 1; 10, 50, 100, and 200 μM; 24 hours
Procedure: The GCT cultured cells of the aforementioned case 1 were cultured on chamber cover slide glass, and 24 hours thereafter, zaltoprofen was added at various concentrations (10, 50, 100, and 200 μM). After 24 hours, the cells were fixed with 4% paraformaldehyde, and staining of PPARγ was performed. Observation was performed with a fluorescence microscope (BZ-9000) of Keyence, and positive images for each concentration were quantitatively observed (FIGS. 6 and 7).

GCT cultured cells [5] = assay: Fat cell differentiation of GCT cultured cells, HCS LipidTOX Green Neutral Lipid Stain; assay type: cell-based, human; conditions: case 1; 10, 50, and 100 μM; fat cell differentiation-inducing medium 7 to 14 days
Procedure: (§4) It has been reported that PPARγ is a transcription factor indispensable for fat cell differentiation. Therefore, the GCT cultured cells of the aforementioned case 1 were cultured on chamber cover slide glass, and when they reached confluent, zaltoprofen was added to the cells at various concentrations (10, 50, and 100 μM). From 24 hours thereafter, the cells were cultured in a fat cell differentiation-inducing medium (STREMPRO Adipogenesis Differentiation Kit, Invitrogen) for 7 to 14 days, and differentiation into fat cells was analyzed with HCS LipidTOX Green Neutral Lipid Stain (Invitrogen) (FIGS. 8 and 9).

osteoclastoma (GCT) [6] = assay: Tunel assay of operational excision sample of GCT patient administered with zaltoprofen; assay type: in vivo, human; conditions: 3 tablets per day (80 mg) for about 28 days
Procedure: (§5) An operational excision sample of a person who had been administered with 3 tablets per day of the zaltoprofen tablets, Soleton Tablet 80 (generic name: zaltoprofen, 80 mg, Nippon Chemiphar) for about 28 days for pain due to the tumor, and then subjected to the operation, and an operational excision sample of a patient with osteoclastoma not administered with zaltoprofen as a control were subjected to caspase 3 staining and Tunel assay, and analyzed for the presence or absence of apoptosis. Observation was performed with a fluorescence microscope (BZ-9000) produced by Keyence (FIG. 10). As a result, almost no Tunel-positive cells and caspase 3-positive cells were observed among the cells derived from the GCT patient not administered with zaltoprofen, whilst Tunel-positive cells and caspase 3-positive cells were observed among the cells derived from the patient administered with zaltoprofen.

caspase 3 [7] = assay: Caspase 3 staining of operational excision sample of GCT patient administered with zaltoprofen; assay type: in vivo, human; conditions: 3 tablets per day (80 mg) for about 28 days
Procedure: as §5

PPARγ [8] = assay: PPARγ staining of operational excision sample of GCT patient administered with zaltoprofen; assay type: in vivo, human; conditions: 3 tablets per day (80 mg) for about 28 days
Procedure: (§6) An operational excision sample of a person who had been administered with 3 tablets per day of the zaltoprofen tablets, Soleton Tablet 80 (generic name: zaltoprofen, 80 mg, Nippon Chemiphar) for about 28 days for pain due to the tumor, and then subjected to the operation, and an operational excision sample of a patient with osteoclastoma not administered with zaltoprofen as a control were subjected to staining of PPARγ, and expression of PPARγ was analyzed. Observation was performed with a fluorescence microscope (BZ-9000) of Keyence (FIG. 11).

osteoclastoma (GCT) [9] = assay: Fat cell differentiation in operational excision sample of GCT patient administered with zaltoprofen; assay type: in vivo, human; conditions: 3 tablets per day (80 mg) for about 28 days
Procedure: as §6

PPARγ [10] = assay: Effect of PPARγ siRNA on GCT cultured cells after addition of drug, CCK-8; assay type: cell-based, human; conditions: 200 μM; 72 hours; GCT cultured cells case 1, case 2
Procedure: The cells (case 1, case 2) were cultured on a 96-well culture plate, allowed to react with PPARγ siRNA, negative control siRNA, or only with the transfection reagents (Thermo Scientific DharmaFECT, Thermo Scientific) for 48 hours, and further cultured in a usual culture medium for 48 hours. Then, 200 μM of zaltoprofen or 60 μM of troglitazone was added to the cells, 72 hours thereafter, color development was performed with Cell Counting Kit-8 (CCK-8, Dojindo), and 3 hours thereafter, absorbance was measured at 450 nm (FIGS. 14 and 15).

[11] = test system: cultured cells of giant cell tumor of tendon sheath; assay: Cell proliferation of cultured cells of giant cell tumor of tendon sheath, CCK-8; assay type: cell-based, human; conditions: various concentrations
Procedure: as §1, §2

[12] = test system: cultured cells of pigmented villonodular synovitis; assay: Cell proliferation of cultured cells of pigmented villonodular synovitis, CCK-8; assay type: cell-based, human; conditions: various concentrations
Procedure: as §1, §2

[13] = test system: cultured cells of giant cell tumor of tendon sheath; assay: Tunel assay of cultured cells of giant cell tumor of tendon sheath; assay type: cell-based, human; conditions: 400 μM, compared with control
Procedure: as §3, with “5). […] Further, in the same manner as that of Example 1, the cultured cells of giant cell tumor of tendon sheath and the cultured cells of pigmented villonodular synovitis were subjected to staining with caspase 3 and Tunel assay, and presence or absence of apoptosis was analyzed (FIGS. 18 to 25). As a result, it was observed that the Tunel-positive ratio and caspase 3-positive ratio increased in the cells added with zaltoprofen at a concentration of 400 μM or troglitazone at a concentration of 2000 μM compared with those observed for the control.” for “5).”

[14] = test system: cultured cells of pigmented villonodular synovitis; assay: Tunel assay of cultured cells of pigmented villonodular synovitis; assay type: cell-based, human; conditions: 400 μM, compared with control
Procedure: as §3, with “5). […] Further, in the same manner as that of Example 1, the cultured cells of giant cell tumor of tendon sheath and the cultured cells of pigmented villonodular synovitis were subjected to staining with caspase 3 and Tunel assay, and presence or absence of apoptosis was analyzed (FIGS. 18 to 25). As a result, it was observed that the Tunel-positive ratio and caspase 3-positive ratio increased in the cells added with zaltoprofen at a concentration of 400 μM or troglitazone at a concentration of 2000 μM compared with those observed for the control.” for “5).”

caspase 3 [15] = assay: Caspase 3 staining of cultured cells of giant cell tumor of tendon sheath; assay type: cell-based, human; conditions: 400 μM, compared with control
Procedure: as §3, with “5). […] Further, in the same manner as that of Example 1, the cultured cells of giant cell tumor of tendon sheath and the cultured cells of pigmented villonodular synovitis were subjected to staining with caspase 3 and Tunel assay, and presence or absence of apoptosis was analyzed (FIGS. 18 to 25). As a result, it was observed that the Tunel-positive ratio and caspase 3-positive ratio increased in the cells added with zaltoprofen at a concentration of 400 μM or troglitazone at a concentration of 2000 μM compared with those observed for the control.” for “5).”

caspase 3 [16] = assay: Caspase 3 staining of cultured cells of pigmented villonodular synovitis; assay type: cell-based, human; conditions: 400 μM, compared with control
Procedure: as §3, with “5). […] Further, in the same manner as that of Example 1, the cultured cells of giant cell tumor of tendon sheath and the cultured cells of pigmented villonodular synovitis were subjected to staining with caspase 3 and Tunel assay, and presence or absence of apoptosis was analyzed (FIGS. 18 to 25). As a result, it was observed that the Tunel-positive ratio and caspase 3-positive ratio increased in the cells added with zaltoprofen at a concentration of 400 μM or troglitazone at a concentration of 2000 μM compared with those observed for the control.” for “5).”

PPARγ [17] = assay: PPARγ immunostaining of cells derived from giant cell tumor of tendon sheath; assay type: cell-based, human; conditions: 400 μM
PPARγ [18] = assay: PPARγ immunostaining of cells derived from pigmented villonodular synovitis; assay type: cell-based, human; conditions: 400 μM
[19] = test system: cells derived from giant cell tumor of tendon sheath; assay: Fat cell differentiation of cells derived from giant cell tumor of tendon sheath, lipid stain; assay type: cell-based, human; conditions: 400 μM, compared with control
Procedure: as §4
(§7) As described in Example 3, it has been reported that PPARγ is a transcription factor indispensable for fat cell differentiation. Therefore, zaltoprofen was added at a concentration of 400 μM to the cells derived from giant cell tumor of tendon sheath or the cells derived from pigmented villonodular synovitis, and differentiation into fat cells was analyzed (FIGS. 30 and 31). As a result, it was successfully observed that the positive images obtained with HCS LipidTOX Green Neutral Lipid Stain increased in the zaltoprofen-added cells compared with the control.

[20] = test system: cells derived from pigmented villonodular synovitis; assay: Fat cell differentiation of cells derived from pigmented villonodular synovitis, lipid stain; assay type: cell-based, human; conditions: 400 μM, compared with control
Procedure: as §4, §7

osteoclastoma = assay: MRI evaluation of patient with recurrence of osteoclastoma in the pelvic part administered with zaltoprofen; assay type: in vivo, human
Procedure: (§8) Soleton Tablet 80 (generic name: zaltoprofen, 80 mg, Nippon Chemiphar) was administered to a patient with osteoclastoma, a patient with giant cell tumor of tendon sheath, or a patient with pigmented villonodular synovitis at a dose of 3 tablets per day (administered in morning, at noon, and in evening), and the tumor size was evaluated by MRI every several months.

[21] = test system: pigmented villonodular synovitis; assay: MRI and symptom evaluation of patients with recurrence of pigmented villonodular synovitis in the right knee administered with zaltoprofen; assay type: in vivo, human; conditions: person, 3 tablets per day
Procedure: as §8

[22] = test system: chondrosarcoma-derived cell line (H-EMC-SS); assay: Cell proliferation of chondrosarcoma-derived cell line, CCK-8; assay type: cell-based; conditions: various concentrations
caspase 3 [23] = assay: Caspase 3 staining of chondrosarcoma-derived cell line; assay type: cell-based; conditions: 200 μM zaltoprofen, compared with control
Procedure: as §3
Further, in the same manner as that of Example 1, the chondrosarcoma-derived cell line was subjected to caspase 3 staining, and presence or absence of apoptosis was analyzed (FIGS. 46 and 47). As a result, it was successfully observed that the caspase 3-positive ratio increased in the cells added with zaltoprofen at a concentration of 200 μM, troglitazone at a concentration of 100 μM, or pioglitazone at a concentration of 200 μM, compared with the control.

PPARγ [24] = assay: PPARγ immunostaining of chondrosarcoma-derived cell line; assay type: cell-based; conditions: 200 μM zaltoprofen

CC(=O)Nc1ccc(O)cc1 [acetaminophen]
cell proliferation (absorbance at 450 nm) (GCT cultured cells [1]; various concentrations): suppressed in a non-steroidal anti-inflammatory agent concentration-dependent manner

O=C(O)Cc1ccccc1Nc1c(Cl)cccc1Cl [diclofenac]
cell proliferation (absorbance at 450 nm) (GCT cultured cells [1]; various concentrations): suppressed in a non-steroidal anti-inflammatory agent concentration-dependent manner

COc1ccc2c(c1)c(CC(=O)O)c(C)n2C(=O)c1ccc(Cl)cc1 [indomethacin]
cell proliferation (absorbance at 450 nm) (GCT cultured cells [1]; various concentrations): suppressed in a non-steroidal anti-inflammatory agent concentration-dependent manner

CC(C(=O)O)c1ccc2c(c1)CC(=O)c1ccccc1S2 (stereo not drawn) [zaltoprofen]
cell proliferation (absorbance at 450 nm) (GCT cultured cells [1]; 5, 10, 50, 100, and 200 μM, 24 hours): concentration-dependent suppression of the cell proliferation
Tunel-positive ratio (GCT cultured cells [2]): concentration and administration time-dependent increases
caspase 3-positive ratio (caspase 3 [3]): concentration and administration time-dependent increases
expression of PPARγ (PPARγ-positive cells) (PPARγ [4]): increased in a zaltoprofen concentration-dependent manner
positive images obtained with HCS LipidTOX Green Neutral Lipid Stain (differentiation into fat cells) (GCT cultured cells [5]): increased in a zaltoprofen concentration-dependent manner
Tunel-positive cells (osteoclastoma (GCT) [6]): observed
caspase 3-positive cells (caspase 3 [7]): observed
PPARγ-expressing cells (PPARγ [8]): PPARγ-expressing cells were observed
fat cell differentiation (osteoclastoma (GCT) [9]): fat cell differentiation was observed
effect of the drug on cell proliferation in the PPARγ siRNA addition group (PPARγ [10]): significantly suppressed
cell proliferation (absorbance) [11]: suppressed in a zaltoprofen or troglitazone concentration-dependent manner
cell proliferation (absorbance) [12]: suppressed in a zaltoprofen or troglitazone concentration-dependent manner
Tunel-positive ratio [13]: increased
Tunel-positive ratio [14]: increased
caspase 3-positive ratio (caspase 3 [15]): increased
caspase 3-positive ratio (caspase 3 [16]): increased
expression of PPARγ (PPARγ-positive images) (PPARγ [17]): expression of PPARγ was successfully observed
expression of PPARγ (PPARγ-positive images) (PPARγ [18]): expression of PPARγ was successfully observed
positive images obtained with HCS LipidTOX Green Neutral Lipid Stain (differentiation into fat cells) [19]: increased
positive images obtained with HCS LipidTOX Green Neutral Lipid Stain (differentiation into fat cells) [20]: increased
MRI image of the pelvic part (arrows) (osteoclastoma; after four months of administration): tumor necrosis region
MRI image of the pelvic part (arrows) (osteoclastoma; after two months of administration): tumor necrosis region
MRI imaging effect ([21]; after three months): attenuation of the MRI imaging effect
tumor size evaluated by MRI ([21]; after two months): shrinkage of tumor
cell proliferation (absorbance) [22]: suppressed in a troglitazone, pioglitazone, or zaltoprofen concentration-dependent manner
caspase 3-positive ratio (caspase 3 [23]): increased
expression of PPARγ (PPARγ-positive images) (PPARγ [24]): expression of PPARγ was successfully observed
